Here are results for two compounds from article PMC12301304 (Frontiers in Pharmacology, 2025).

Data set [1] concerns the target T1, CYP2c13 (Rattus norvegicus, UniProt P20814).
T1 sequence (P20814 1-490): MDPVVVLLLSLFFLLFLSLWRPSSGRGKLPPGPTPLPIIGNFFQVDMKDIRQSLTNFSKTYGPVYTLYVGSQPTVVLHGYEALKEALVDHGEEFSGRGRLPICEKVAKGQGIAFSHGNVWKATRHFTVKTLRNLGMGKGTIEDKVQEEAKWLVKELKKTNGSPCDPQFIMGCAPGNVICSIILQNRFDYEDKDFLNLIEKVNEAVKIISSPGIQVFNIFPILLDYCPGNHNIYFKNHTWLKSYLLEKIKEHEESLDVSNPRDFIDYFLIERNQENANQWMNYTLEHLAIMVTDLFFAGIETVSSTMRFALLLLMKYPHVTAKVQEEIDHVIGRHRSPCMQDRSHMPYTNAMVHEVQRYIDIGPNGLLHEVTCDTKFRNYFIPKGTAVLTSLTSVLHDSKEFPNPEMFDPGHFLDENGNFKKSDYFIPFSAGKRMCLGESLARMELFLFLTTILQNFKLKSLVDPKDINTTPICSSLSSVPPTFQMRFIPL
The data set is described as follows: RLM incubation: metabolic clearance rate of mephenytoin (CYP2c13). The settings on record: RLM 0.5 mg/mL, 30 min 37°C, inhibitor added, blank control 15.97 ± 0.68, n = 3. As for the experimental part: (§1) The effect of the Zhicaowu–Hezi combination on CYP450 enzymes in RLM was evaluated by assessing the metabolic clearance rates of theophylline, metoprolol, bupropion, mephenytoin (CYP2c13), chlorzoxazone, testosterone, and diclofenac.
(§2) On day 15, the rats were humanely euthanized, and liver tissues were excised for microsomal preparation. […] Livers from each group were repeatedly washed with ice-cold phosphate buffered saline (PBS). […] Subsequently, they were blotted dry with filter paper, weighed, and homogenized by adding 4 mL of ice-cold PBS per gram of liver tissue. The mixture was homogenized in an ice bath. The liver homogenate was subjected to centrifugation at 10,000 RPM for 20 min at 4°C. The resulting supernatant was then combined with an ice-cold 88-mmol/L CaCl2 solution at a 1:1 ratio, and the mixture was homogenized in an ice bath for 5 min. The resulting solution was then centrifuged at 25,000 × g for 30 min at 4°C. The supernatant was discarded and the precipitate was repeatedly resuspended in PBS–20% glycerol buffer. The precipitate was then stored in a separate bottle at −80°C for backup. The protein concentration of the prepared RLM was determined using a bicinchoninic acid protein assay kit.
(§3) Preincubation was conducted for 5 min in a water bath at 37°C, after which NADPH (1 mmol/L) was added, and incubation continued for 30 min at 37°C. Once the incubation period elapsed, the reaction was terminated by the addition of an ice-cold IS-containing acetonitrile solution. The samples were vortexed for 2 min and centrifuged at 15,000 RPM for 10 min. The resulting supernatant was filtered through a 0.22-μm organic microporous membrane, and 20 μL of the filtered solution was injected into the HPLC assay. To prevent the organic solvents from inducing or inhibiting the enzyme, the volume fraction of organic solvents in the entire incubation system was maintained at 1%. […] The inhibitor group was added with corresponding inhibitor, while all other procedures remained identical.

Data set [2] concerns the target T2, CYP2c11 (Rattus norvegicus, UniProt P08683).
T2 sequence (P08683 1-500): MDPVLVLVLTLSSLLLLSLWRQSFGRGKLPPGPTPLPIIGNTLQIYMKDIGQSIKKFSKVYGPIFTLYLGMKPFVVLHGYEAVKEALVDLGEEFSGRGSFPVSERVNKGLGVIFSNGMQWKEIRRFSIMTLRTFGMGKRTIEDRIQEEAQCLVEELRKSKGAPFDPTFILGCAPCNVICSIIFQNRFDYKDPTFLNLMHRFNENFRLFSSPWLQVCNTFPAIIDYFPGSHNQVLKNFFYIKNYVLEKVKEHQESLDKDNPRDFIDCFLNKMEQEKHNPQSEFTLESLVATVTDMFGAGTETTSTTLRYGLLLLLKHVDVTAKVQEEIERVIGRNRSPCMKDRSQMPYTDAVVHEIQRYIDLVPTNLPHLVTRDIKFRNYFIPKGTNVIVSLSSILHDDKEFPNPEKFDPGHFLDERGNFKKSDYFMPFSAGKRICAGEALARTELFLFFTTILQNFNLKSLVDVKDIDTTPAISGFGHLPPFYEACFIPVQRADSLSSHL
As for the experimental part: as §1, §2, §3

The target of data set [3] is T3, CYP3a1 (Rattus norvegicus, UniProt P04800).
T3 sequence (P04800 1-504): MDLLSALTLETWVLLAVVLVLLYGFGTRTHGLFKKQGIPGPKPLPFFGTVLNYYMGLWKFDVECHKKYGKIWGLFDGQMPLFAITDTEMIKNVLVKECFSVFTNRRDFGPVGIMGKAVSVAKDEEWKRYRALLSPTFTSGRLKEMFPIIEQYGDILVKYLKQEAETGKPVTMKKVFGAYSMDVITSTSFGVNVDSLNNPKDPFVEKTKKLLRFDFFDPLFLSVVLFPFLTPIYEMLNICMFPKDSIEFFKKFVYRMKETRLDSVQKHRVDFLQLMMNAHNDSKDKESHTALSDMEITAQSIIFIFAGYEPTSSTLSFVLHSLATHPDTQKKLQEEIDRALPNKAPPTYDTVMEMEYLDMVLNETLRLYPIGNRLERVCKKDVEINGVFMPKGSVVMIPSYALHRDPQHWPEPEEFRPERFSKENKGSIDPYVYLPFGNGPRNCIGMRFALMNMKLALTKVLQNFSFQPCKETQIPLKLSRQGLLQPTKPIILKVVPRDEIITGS
As for the experimental part: as §1, §2, §3

The target in data set [4] is T4, CYP1a2 (Rattus norvegicus, UniProt P04799).
T4 sequence (P04799 1-513): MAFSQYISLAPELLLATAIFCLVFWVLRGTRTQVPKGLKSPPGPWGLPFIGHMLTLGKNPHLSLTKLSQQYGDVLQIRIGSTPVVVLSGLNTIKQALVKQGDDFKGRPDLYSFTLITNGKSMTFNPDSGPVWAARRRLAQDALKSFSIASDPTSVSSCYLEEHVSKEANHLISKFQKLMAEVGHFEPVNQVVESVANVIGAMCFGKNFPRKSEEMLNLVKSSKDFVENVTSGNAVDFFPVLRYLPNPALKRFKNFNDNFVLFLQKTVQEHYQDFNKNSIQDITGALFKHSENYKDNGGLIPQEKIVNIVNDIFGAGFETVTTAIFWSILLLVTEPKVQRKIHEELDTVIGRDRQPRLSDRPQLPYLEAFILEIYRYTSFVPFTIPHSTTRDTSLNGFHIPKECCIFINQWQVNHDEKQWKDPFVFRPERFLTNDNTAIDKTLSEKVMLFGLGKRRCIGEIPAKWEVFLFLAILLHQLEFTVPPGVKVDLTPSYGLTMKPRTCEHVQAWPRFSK
The following applies: microsomes. The method, then: as §1, §2, §3

Read-outs that look alike come from different tables or passages of the source.

Turning to `S=P(N1CC1)(N1CC1)N1CC1` [Thiotepa], the “CYP2c13(%) metabolic clearance rate of probe drug” value in data set [1] is 14.43 ± 0.36%. Also, the “CYP2c11(%) metabolic clearance rate of probe drug” value in data set [2] is reported as 21.84 ± 2.64%. The “CYP3a1 (%) metabolic clearance rate of probe drug” value in data set [3] is on record as 25.72 ± 2.36%. Moreover, the “CYP1a2 (%) metabolic clearance rate of probe drug” value in data set [4] came to 35.91 ± 1.40%.

As to `O=c1cc(-c2ccccc2)oc2c1ccc1ccccc12` [α-naphthoflavone], the “CYP2c13(%) metabolic clearance rate of probe drug” value in data set [1] amounted to 16.65 ± 3.04%. In data set [2] (RLM 0.5 mg/mL, 30 min 37°C, inhibitor added, probe diclofenac, blank control 21.12 ± 3.80, n = 3), the “CYP2c11(%) metabolic clearance rate of probe drug” value came to 23.02 ± 0.55%. Also, the “CYP3a1 (%) metabolic clearance rate of probe drug” value in data set [3] (RLM 0.5 mg/mL, 30 min 37°C, inhibitor added, probe testosterone, blank control 25.04 ± 1.93, n = 3) came to 25.69 ± 2.09%. In addition, the “CYP1a2 (%) metabolic clearance rate of probe drug” value in data set [4] came out at 28.92 ± 1.91 %.
